According to patent publication US20090023933A1, “METHOD FOR ISOLATING ACIDS FROM CHEMICAL REACTION MIXTURES BY USING 1-ALKYLIMIDAZOLES” (BASF Aktiengesellschaft, priority 2003, published 2009):

Assay: Behavior of the 1-alkylimidazoles toward 30% strength NaCl solution (shaking funnel, phase separation, Karl-Fischer and GC analysis)
Conditions: for Solubility of free base in NaCl solution in %: free 1-alkylimidazole, 5 g imidazole shaken with 5 g solution of 30 g NaCl in 100 g water, lower phase extracted, GC with internal standard; for Solubility of water in imidazole in %: water determination on upper (imidazole) phase by Karl-Fischer titration after shaking with NaCl solution
Method: A solution of 30 g of sodium chloride in 100 g of demineralized water was prepared. 5 g of this solution were admixed with 5 g of the imidazole derivative listed in a shaking funnel and the mixture was shaken vigorously. The phases were then separated and weighed.
The weight of the upper phase was recorded.
For the purposes of analysis, a water determination was carried out on the upper phase (by Karl-Fischer titration). The lower phase was, if present, separated off, admixed with 1N KOH solution and extracted twice with xylene. After drying over magnesium sulfate, an internal standard (heptadecane) was added and the amount of dissolved imidazole was backcalculated after GC analysis.

| SMILES | Solubility of free base in NaCl solution in % | Solubility of water in imidazole in % |
| --- | --- | --- |
| CCn1ccnc1 [Et (comp.)] | 100% | ca. 50% |
| Cn1ccnc1 [Me (comp.)] | 100% | ca. 50% |
| CCCn1ccnc1 [nPr, n-propylimidazole] | 3% | 30% |
| CCCCn1ccnc1 [nBu, n-butylimidazole] | 0.2% | 16% |
